From doi:10.1101/704536v1 (biorxiv, 2019)

Assays:
repeat Tau (K18) [1] = molecular target: T1, repeat Tau (K18) (Homo sapiens, UniProt P10636); assay: UV-visible absorbance titration at […] nm; format: binding
repeat Tau (K18) [2] = molecular target: T1, repeat Tau (K18); assay: ThS fluorescence, inhibition of heparin-induced aggregation; format: biochemical

T1 sequence (P10636 561-689 limits assumed): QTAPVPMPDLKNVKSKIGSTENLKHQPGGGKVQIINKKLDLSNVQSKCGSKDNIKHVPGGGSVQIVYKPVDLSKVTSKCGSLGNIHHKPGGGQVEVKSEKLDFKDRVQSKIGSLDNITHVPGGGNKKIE

Kd (repeat Tau (K18) [1]): 3.5 µM
IC50 (repeat Tau (K18) [2]): 35.8 µM
SMILES: O=c1cc(-c2ccccc2)oc2cc(O)c(O)c(O)c12 [Baicalein]
